The record followed here is patent publication US10968260B2, “Curcumin-peptide conjugates and formulations thereof” (HAUS BIOCEUTICALS, INC., priority 2014, dated 2021).

Data set [1] deals with advanced Alzheimer's disease. Briefly: Clinical case study: Alzheimer's disease (Example 5). The data set is classed as in vivo, human. The settings on record: Case 20, 1.2 g curcumin bid, after 30 days. An excerpt: A person was presented with advanced Alzheimer's disease. Prior to dosing, they failed all short term memory questions on a test. […] They have continued to have lasting benefit from the therapy.

On the set-up of data set [2]: species or system mice. The settings on record: mouse, in vivo. Here is the method: Mice weighed ˜25 g each. Blood was drawn every 30 minutes for 180 total minutes.

Each structure is given as a SMILES string.

In the case of `COc1cc(C=CC(=O)CC(=O)C=Cc2ccc(O)c(OC)c2)ccc1O` [curcumin, 1,7-bis[4-hydroxy-3-methoxyphenyl]-1,6-heptadiene-3,5-dione], in data set [1], the “short term memory questions on a test, advanced Alzheimer's disease” value is on record as “passed all short term memory questions”. Further, the absorbability / bioavailability result in data set [2] is “very poor absorbability”.
